Here are results for 25 compounds from patent US4004008A, “O-Tertiary amino-alkyl-N-benzoyl tyrosil amides” (priority 1974, dated 1977).

Series [1] is described as follows: Acute toxicity (DL50) i.v. in rat. It is filed as in vivo. The conditions noted are these: in vivo, iv, dose causing death in 50% of the animals. On the procedure:
In this table (n. 1) there are recorded the compounds described in the examples with their relative serial numbers, the acute toxicity, the antispastic activity observed in two experimental tests, one "in vivo" and one "in vitro". There are moreover recorded two therapeutic indices which take account of the toxicity of these compounds in relation to their in vivo and in vitro activity. More precisely:
A. DL50 which, as is known, is the quantity of the substance expressed in mg/kg of animal weight, capable of causing death in 50% of the animals treated.

Series [2] relates to intestinal transit of the charcoal. Briefly: Vegetable carbon (charcoal) intestinal transit test in vivo. The conditions noted are these: i.v., rat, charcoal test, 2 hours; for ED50: Rattus norvegicus, iv, 2 h, read-out: Antisp. activity in transit test: ED50. Details: species or system rat. On the procedure: B. The vegetable carbon method in vivo (charcoal method) which consists of administering by oral means to rats, which have fasted for 24 hours, 0.3ml/per rate of a mixture consisting of: 10g of charcoal and 5 g of gum arabic suspended in a volume of 100 cc of H2 O as well as at the same time the substance being studied, accordingly as desired, generally i.v., s.c., oral. After two hours the animals are killed and those are taken to be negative in which the charcoal has reached the first portion of the colon and the others positive, in the sense that the substance administered has slowed down the intestinal transit of the charcoal.
In effect the animals treated with a physiological solution (checks) are all negative after two hours.
D. I.T.1 is the therapeutic index under the profile of the antispastic activity in vivo, and it is obtained by recording the DL50 (column 2) with the ED50 of the charcoal test (column 3).

The test system of series [3] is ileum of a cavy (BaCl2 spasm). Briefly: Antispastic activity in vitro, Magnus method, cavy ileum stimulated with BaCl2. The conditions noted are these: ratio to papaverine = 1; Table 1; 37°. It is filed as cell-based. On the procedure:
C. The method in vitro is that of Magnus, with the ileum of the cavy, and is in common use for all evaluations. It consists of extracting the ileum from the cavy and placing it in a receptacle which contains nutritive liquid, suitably oxygenated, and registering the movements of the organ which remains alive for several hours if maintained at a temperature of 37°. According to the traditional method followed by us, BaCl2 is put into the bath as a spasmisant: the reaction is a violent contraction of the organ. This contraction can be prevented by adding beforehand pharmaceuticals which inhibit spasms, and in this case our compounds.
The values recorded are expressed as relation between papaverine and the ED50 of our compounds. (As is known, the ED50 is the dose which results in a 50% reduction in spastic contraction).
E. I.T.2 is the therapeutic index under the profile of the antispastic activity in vitro and is given by the product between the in vitro antispastic activity index (column 4) and the corresponding DL50 (column 2).

SMILES strings stand for the structures.

The LD50 is the dose at which mortality reaches 50%. Turning to `CCNC(=O)C(Cc1ccc(OCCN(C(C)C)C(C)C)cc1)NC(=O)c1ccccc1` (racemic) [CR 711, O-(2-diisopropylamino-ethyl)-N-benzoyl-DL-tyrosil-ethylamide], in series [1], the LD50 is 82 mg/kg. Also, in series [2], the “Antisp. activity in transit test: ED50” value was “inactive”. Moreover, the “Antisp. activity in vitro on the ileum of a cavy by Stim. BaCl2: ED50 pap./ED50 CR” value (“Antisp. activity in vitro on the ileum” for short) in series [3] is 0.42.

In general, ED50 refers to the midpoint of the dose-response relation. `CCCCCCNC(=O)C(Cc1ccc(OCCN2CCCC2)cc1)NC(=O)c1ccccc1` (racemic) [CR 825, O-(2-pyrrolidil-N'-ethyl)-N-benzoyl-DL-tyrosil-n-hexylamide]: in series [1], the LD50 was found to be 42 mg/kg. In addition, in series [2], the ED50 is 14.8 mg/kg. Also, in series [3], the “Antisp. activity in vitro on the ileum” value is given as 1.8.

In the case of `CN(C)CCOc1ccc(C[C@H](NC(=O)OCc2ccccc2)C(=O)NCc2ccccc2)cc1` [CR 612, O-(2-dimethylamino-ethyl)-N-carbobenzoxy-L-tyrosil-benzylamide], the LD50 in series [1] was 87.7 mg/kg. In addition, the ED50 in series [2] was determined as 23 mg/kg. Besides, the “Antisp. activity in vitro on the ileum” value in series [3] came out at 0.35.

The compound `CCCCNC(=O)C(Cc1ccc(OCCN2CCCC2)cc1)NC(=O)c1ccc(Cl)cc1` (racemic) [CR 812, O-(2'-pyrrolidil-N'-ethyl)-N-(p-chloro-benzoyl)-DL-tyrosil-n-butylamide] gave an LD50 in series [1] of 27 mg/kg. For the same compound, the ED50 in series [2] worked out at 21 mg/kg. Besides, in series [3], the “Antisp. activity in vitro on the ileum” value came out at 1.03.

In series [1], `CCCN(CCC)C(=O)C(Cc1ccc(OCCN(CC)CC)cc1)NC(=O)OCc1ccccc1` [CR 830, O-(2-diethylamino-ethyl)-N-carbobenzoxy-L-tyrosil-di-n-propylamide] came in with an LD50 of 31.5 mg/kg. Further, the ED50 in series [2] came out at 17.3 mg/kg. The “Antisp. activity in vitro on the ileum” value in series [3] came out at 1.49.

In series [1], `CN(C)CCOc1ccc(CC(NC(=O)c2ccccc2)C(=O)N2CCOCC2)cc1` (racemic) [CR 611, O-(2-dimetylamino-ethyl)-N-benzoyl-DL-tyrosil-morpholilamide] displayed an LD50 of 108 mg/kg. Besides, the ED50 in series [2] came out at 59.8 mg/kg.

In turn, `CCCN(CCC)C(=O)C(Cc1ccc(OCCN(CC)CC)cc1)NC(=O)c1ccc(Br)cc1` (racemic) [CR 631, O-(2-diethylamino-ethyl)-N-(p-bromobenzoyl)-DL-tyrosil-din-propylamide] returned an LD50 in series [1] of 60.2 mg/kg. Moreover, the ED50 in series [2] was 40.4 mg/kg. Further, the “Antisp. activity in vitro on the ileum” value in series [3] came out at 1.22.

In series [1], `CCCN(CCC)C(=O)C(Cc1ccc(OCCN2CCN(C)CC2)cc1)NC(=O)c1ccc(Cl)cc1` (racemic) [CR 733, O-[2'-(N"-methyl-piperazine)-N'-ethyl]-N-(p-chloro-benzoyl)-DL-tyrosil-di-n-propylamide] yielded an LD50 of 43.5 mg/kg. For the same compound, the ED50 in series [2] amounted to 16.7 mg/kg. The “Antisp. activity in vitro on the ileum” value in series [3] turned out to be 1.31.

On to `CCN(CC)CCOc1ccc(CC(NC(=O)c2ccccc2)C(=O)N2CCCC2)cc1` (racemic) [CR 614, O-(2-diethylamino-ethyl)-N-benzoyl-DL-tyrosil-pyrrolidilamide], for which the LD50 in series [1] was 58.7 mg/kg. Moreover, the ED50 in series [2] was 53.2 mg/kg.

Turning to `CCCN(CCC)C(=O)C(Cc1ccc(OC(C)C(C)CN(CC)CC)cc1)NC(=O)c1ccccc1` (racemic) [CR 700, O-(3-diethylamino-1,2-dimethyl-propyl)-N-benzoyl-DL-tyrosil-di-n-propylamide], the LD50 in series [1] turned out to be 19.3 mg/kg. Besides, the ED50 in series [2] amounted to 20.4 mg/kg.

In turn, `CCNC(=O)C(Cc1ccc(OCCCN2CCN(C)CC2)cc1)NC(=O)c1ccc(Cl)cc1` (racemic) [CR 714, O-[3-(N"-methyl-piperazine)-N'-propyl]-N-(p-chloro-benzoyl)-DL-tyrosil-ethylamide] had an LD50 in series [1] of 111 mg/kg. Also, the “Antisp. activity in transit test: ED50” value in series [2] was “inactive”. Further, the “Antisp. activity in vitro on the ileum” value in series [3] is 0.42.

As for `CCCN(CCC)C(=O)C(Cc1ccc(OCCN(C)C)cc1)NC(=O)c1ccccc1` (racemic) [CR 592, O-(2dimethylamino-ethyl)-N-benzol-DL-Tyrosil-di-n-propilamide], the LD50 in series [1] is 58.1 mg/kg. The 50% effective dose (ED50) in series [2] turned out to be 47.5 mg/kg. Also, in series [3], the “Antisp. activity in vitro on the ileum” value is given as 0.25.

Turning to `CN(C)CCOc1ccc(C[C@H](NC(=O)OCc2ccccc2)C(=O)N2CCOCC2)cc1` [CR 606, O-(2-dimethylamino-ethyl)-N-carbobenzoxy-L-tyrosil-morpholylamide], in series [1], the LD50 came out at 128 mg/kg. Also, the “Antisp. activity in transit test: ED50” value in series [2] was “inactive”. The “Antisp. activity in vitro on the ileum” value in series [3] is 0.19.

Take `CCCCNC(=O)C(Cc1ccc(OCCN(CC)CC)cc1)NC(=O)c1ccccc1` (racemic) [CR 786, O-(2-diethylamine-ethyl)-N-benzoyl-DL-tyrosil-n-butylamide]: the LD50 in series [1] is 38 mg/kg. In series [2], the ED50 turned out to be 34.3 mg/kg. In series [3], the “Antisp. activity in vitro on the ileum” value was found to be 0.17.

Take `CCCN(CCC)C(=O)C(Cc1ccc(OCCN(CC)CC)cc1)NC(=O)c1ccccc1` [CR 804, O-(2-diethylamino-ethyl)-N-benzoyl-L-tyrosil-di-n-propylamide]: the LD50 in series [1] was 33.5 mg/kg. The ED50 in series [2] was 16.1 mg/kg. Moreover, the “Antisp. activity in vitro on the ileum” value in series [3] was 0.89.

Take `CCCN(CCC)C(=O)C(Cc1ccc(OCCN(CC)CC)cc1)NC(=O)c1ccc(C(F)(F)F)cc1` (racemic) [CR 635, O-(2-diethylamino-ethyl)-N-[p-(trifluoro-methyl)-benzoyl]-DL-tyrosil-di-n-p ropylamide]: the LD50 in series [1] came to 38.7 mg/kg. In addition, the ED50 in series [2] stood at 25.6 mg/kg. Besides, the “Antisp. activity in vitro on the ileum” value in series [3] is 0.95.

Take `CCN(CC)C(=O)C(Cc1ccc(OCCN2CCN(C)CC2)cc1)NC(=O)c1ccccc1` (racemic) [CR 736, O-[2-(N"-methyl-piperazine)-N'-ethyl]-N-benzoyl-DL-tyrosildiethylamide]: the median lethal dose (LD50) in series [1] was determined as 102 mg/kg. Further, in series [2], the ED50 was found to be 39.6 mg/kg. The “Antisp. activity in vitro on the ileum” value in series [3] amounted to 0.04.

Regarding `CCCN(CCC)C(=O)C(Cc1ccc(OCCCCN(CC)CC)cc1)NC(=O)c1ccccc1` (racemic) [CR 829, O-(4-diethylamino-butyl)-N-benzoyl-DL-tyrosil-di-n-propylamide], the LD50 in series [1] turned out to be 20.1 mg/kg. In addition, the ED50 in series [2] was 15.2 mg/kg.

In the case of `CCNC(=O)C(Cc1ccc(OCCN(C)C)cc1)NC(=O)OCc1ccccc1` [CR 610, O-(2-dimethylamino-ethyl)-N-carbobenzoxy-L-tyrosil-ethylamide], the LD50 in series [1] worked out at 139 mg/kg. In addition, the median effective dose (ED50) in series [2] amounted to 58.1 mg/kg. In series [3], the “Antisp. activity in vitro on the ileum” value is listed as 0.13.

In series [1], `CN(C)CCOc1ccc(CC(NC(=O)c2ccccc2)C(=O)NCc2ccccc2)cc1` (racemic) [CR 616, O-(2-dimethylamino-ethyl)-N-benzoyl-DL-tyrosil-benzylamide] showed a 50% lethal dose (LD50) of 73.6 mg/kg. Moreover, the “Antisp. activity in transit test: ED50” value in series [2] is “inactive”. For the same compound, the “Antisp. activity in vitro on the ileum” value in series [3] was determined as 0.82.

As for `CCCN(CCC)C(=O)C(Cc1ccc(OCCN2CCCCC2)cc1)NC(=O)c1ccccc1` (racemic) [CR 630, O-(2-piperidil -N'-ethyl)-N-benzoyl-DL-tyrosil-di-n-propylamide], the LD50 in series [1] is 36.1 mg/kg. Besides, the ED50 in series [2] was found to be 40.1 mg/kg.

Take `CCCCNC(=O)C(Cc1ccc(OCCN2CCCC2)cc1)NC(=O)c1ccccc1` (racemic) [CR 648, O-(2-pyrrolidil-N'-ethyl)-N-benzoyl-DL-tyrosil-n-butylamide]: the LD50 in series [1] was 35.6 mg/kg. Further, the median effective dose (ED50) in series [2] was found to be 10.7 mg/kg. The “Antisp. activity in vitro on the ileum” value in series [3] stood at 0.16.

Take `CCCN(CCC)C(=O)C(Cc1ccc(OCCN(CC)CC)cc1)NC(=O)c1ccc(OC)cc1` (racemic) [CR 644, O-(2-diethylamino-ethyl)-N-(p-metoxy-benzoyl)-DL-tyrosil-di-n-propylamide]: the LD50 in series [1] is 56.4 mg/kg. Further, the ED50 in series [2] amounted to 20.2 mg/kg. Further, in series [3], the “Antisp. activity in vitro on the ileum” value is on record as 0.45.

Take `CCNC(=O)C(Cc1ccc(OCCN(C)C)cc1)NC(=O)c1ccccc1` (racemic) [CR 608, O-(2-dimethylamino-ethyl)-N-benzoyl-DL-tyrosil-ethylamide]: the LD50 in series [1] amounted to 162 mg/kg. The ED50 in series [2] came to 104 mg/kg.

With `CCCN(CCC)C(=O)C(Cc1ccc(OCCCN2CCN(Cc3ccccc3)CC2)cc1)NC(=O)c1ccccc1` (racemic) [CR 619, O-[3-(N"-benzylpiperazine)-N'-propyl]-N-benzoyl-DL-tyrosil-di-n-propylamide], in series [1], the LD50 worked out at 110 mg/kg. Also, in series [2], the median effective dose (ED50) came to 67.8 mg/kg.
